Data set [1] deals with T1, α-glucosidase (Saccharomyces cerevisiae, UniProt P53341). To be noted: read-out: IC50 α-glucosidase; cited from earlier work.
Data set [2] has as its target T2, α-amylase (Homo sapiens, UniProt P04746).
T2 sequence (P04746 16-511): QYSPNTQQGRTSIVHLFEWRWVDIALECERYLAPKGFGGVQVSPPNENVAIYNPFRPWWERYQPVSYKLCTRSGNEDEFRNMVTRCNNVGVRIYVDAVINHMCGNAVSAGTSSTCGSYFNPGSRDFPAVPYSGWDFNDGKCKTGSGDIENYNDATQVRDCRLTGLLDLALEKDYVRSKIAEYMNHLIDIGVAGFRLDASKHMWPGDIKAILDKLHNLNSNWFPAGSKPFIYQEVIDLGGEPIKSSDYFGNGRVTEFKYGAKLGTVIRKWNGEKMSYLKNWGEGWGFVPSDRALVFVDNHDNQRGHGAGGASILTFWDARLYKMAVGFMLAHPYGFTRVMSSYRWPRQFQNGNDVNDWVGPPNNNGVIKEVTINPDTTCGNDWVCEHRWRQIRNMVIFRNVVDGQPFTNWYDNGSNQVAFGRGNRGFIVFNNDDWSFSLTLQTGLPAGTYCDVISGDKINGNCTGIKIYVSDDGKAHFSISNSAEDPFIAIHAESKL
To be noted: read-out: IC50 α-amylase; cited from earlier work.

Data set [3] in a line: body weight of STZ-induced diabetic rats. To be noted: WA1-WA3 12 mg/kg; mean ± SEM, n = 8.
Data set [4] has as its system streptozotocin (STZ)-induced diabetic rat model. The data set can be described thus: glycated hemoglobin. To be noted: for HbA1c (%): Table 4: dose printed 6 mg/kg for WA1-WA3, 0.5 mg/kg glibenclamide, n = 8; for HbA1c level: text: WA1, WA2, WA3 at 12 mg/kg, diabetic control 10.12%.
Data set [5] has the same test system. Description: kidney and liver function tests in STZ-induced diabetic rats. The data set is classed as in vivo, Wistar rats. To be noted: serum, 28th day; 12 mg/kg oral (glibenclamide 0.5 mg/kg); mean ± SEM, n = 8.
For data set [6] the test system is unchanged. Description: blood glucose level in STZ-induced diabetic rats. To be noted: WA1-WA3 12 mg/kg oral, glibenclamide 0.5 mg/kg; mean ± SEM, n = 8.
The test system is the same in data set [7]. The data set can be described thus: serum lipid profile in STZ-induced diabetic rats. The data set is classed as in vivo, Wistar rats. To be noted: 28th day, 12 mg/kg oral (glibenclamide 0.5 mg/kg), mean ± SEM, n = 8.
The subject of data set [8] is STZ-induced diabetic rat model. To be noted: during the course of 0–300 min; cited from earlier work.
Data set [9] deals with T1, α-glucosidase. The data set can be described thus: in-vitro α-glucosidase inhibitory activity. The data set is classed as biochemical.
Data set [10] addresses T2, α-amylase. The data set can be described thus: in-vitro α-amylase inhibitory activity. The data set is classed as biochemical.
The next data set can be described thus: acute toxicity study. The data set is classed as in vivo.

The structures appear in SMILES notation. pIC50: −log10 of the molar value. Like-named read-outs stand apart in the source and are kept apart here. Marks after values point to notes of the source that are not given here.

A word on the pIC50: it is the negative decadic logarithm of the IC50, by convention in mol/L.

T1 sequence (P53341 whole entry): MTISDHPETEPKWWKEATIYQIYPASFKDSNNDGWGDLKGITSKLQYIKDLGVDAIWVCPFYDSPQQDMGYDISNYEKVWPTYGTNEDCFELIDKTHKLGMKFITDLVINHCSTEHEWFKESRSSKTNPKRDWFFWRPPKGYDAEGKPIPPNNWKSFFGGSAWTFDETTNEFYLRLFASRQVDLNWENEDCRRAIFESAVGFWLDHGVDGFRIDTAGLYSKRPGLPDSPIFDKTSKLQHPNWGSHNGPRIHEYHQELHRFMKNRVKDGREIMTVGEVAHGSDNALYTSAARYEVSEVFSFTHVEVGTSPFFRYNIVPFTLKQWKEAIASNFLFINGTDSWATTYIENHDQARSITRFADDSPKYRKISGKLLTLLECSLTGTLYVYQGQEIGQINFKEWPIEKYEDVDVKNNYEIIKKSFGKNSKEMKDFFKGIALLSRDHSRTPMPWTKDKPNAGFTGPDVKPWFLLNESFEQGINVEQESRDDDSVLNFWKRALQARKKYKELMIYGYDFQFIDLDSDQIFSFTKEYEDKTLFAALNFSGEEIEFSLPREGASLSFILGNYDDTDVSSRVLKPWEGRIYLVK

`CC(C)=CCCC1(C)C=Cc2c(c(C)cc3c2[nH]c2ccccc23)O1` (stereo not drawn) [mahanimbine]: the pIC50 was 3.52 on α-glucosidase [1] and 3.60 on α-amylase [2].
In the case of `COc1ccc(Cl)cc1C(=O)NCCc1ccc(S(=O)(=O)NC(=O)NC2CCCCC2)cc1` [glibenclamide, reference compound], in [3], the “body weight, 1st day” value is reported as 184.11 ± 5.15; the “body weight, 7th day” value turned out to be 183.91 ± 4.87; the “body weight, 14th day” value came to 189.16 ± 5.13; the “body weight, 21st day” value is given as 187.63 ± 4.86. The “body weight, 28th day” value in data set [3] amounted to 194.37 ± 4.90. In data set [4], the “HbA1c (%)” value is listed as 6.91*** % and the HbA1c level worked out at 6.91%. In data set [5], the “kidney: creatinine” value is 1.01 ± 0.07 mg/dL, the “kidney: urea” value is 40.17 ± 1.90 mg/dL, the “liver: ALP” value was 133.67 ± 3.71 U/L and the “liver: ALT” value was determined as 71.43 ± 2.13 U/L. Moreover, in data set [5], the “liver: AST” value worked out at 55.03 ± 1.94 U/L. Further, in data set [6], the “blood glucose level, day 1st” value is listed as 458.12 ± 6.15 mg/dL; the “blood glucose level, day 7th” value amounted to 349.36 ± 4.98 mg/dL; the “blood glucose level, day 14th” value was determined as 248.70 ± 6.96 mg/dL; the “blood glucose level, day 21st” value amounted to 138.49 ± 4.86 mg/dL. Further, in data set [6], the “blood glucose level, day 28th” value is 102.19 ± 5.11 mg/dL. For the same molecule, in [7], the HDL amounted to 39.64 ± 1.51 mg/dL, the LDL is recorded as 40.17 ± 1.80 mg/dL, the “TC (total cholesterol)” value is 84.31 ± 4.95 mg/dL and the “TG (triglycerides)” value came out at 102.97 ± 3.69 mg/dL.
Regarding `CN(C)C(=N)N=C(N)N` [metformin, reference compound], the “lowering of blood glucose levels” value in [8] is 25.9%.
As to `COc1cc2[nH]c3c4c(c(C)cc3c2cc1OC)OC(C)(C)C=C4` [koenidine], the “lowering of blood glucose levels” value in data set [8] was about 22.5%.
Turning to `COc1ccc2cc3[n+](cc2c1OC)CCc1cc2c(cc1-3)OCO2` [WA1, berberine], in [3], the “body weight, 1st day” value is on record as 183.77 ± 5.01; the “body weight, 7th day” value is on record as 180.33 ± 4.91; the “body weight, 14th day” value is on record as 178.16 ± 4.96; the “body weight, 21st day” value worked out at 174.80 ± 4.77. In data set [3], the “body weight, 28th day” value is reported as 170.88 ± 4.84. The same molecule gave a pIC50 on α-glucosidase [9] of 3.24. At α-amylase [10], the pIC50 is 3.70. In data set [4], the “HbA1c (%)” value is on record as 7.55*** % and the HbA1c level came out at 7.55%. Also, in data set [5], the “kidney: creatinine” value is recorded as 1.07 ± 0.06 mg/dL, the “kidney: urea” value came to 47.30 ± 1.51 mg/dL, the “liver: ALP” value was 145.69 ± 3.78 U/L and the “liver: ALT” value was found to be 88.30 ± 2.45 U/L. For the same molecule, the “liver: AST” value in data set [5] was 71.16 ± 1.79 U/L. The “nontoxic up to (acute toxicity profile)” value in “acute toxicity study” (oral doses 5-500 mg/kg b.w., observed up to 14 days) was “up to 500 mg/kg”. Also, in “acute toxicity study” (up to 500 mg/kg (b.w.)), the “behavior in acute toxicity profile” value is given as “normal behavior”. In [6], the “blood glucose level, day 1st” value came out at 460.11 ± 5.17 mg/dL; the “blood glucose level, day 7th” value is given as 376.70 ± 4.98 mg/dL; the “blood glucose level, day 14th” value is recorded as 268.21 ± 5.79 mg/dL; the “blood glucose level, day 21st” value is 176.33 ± 4.69 mg/dL. The “blood glucose level, day 28th” value in [6] came to 133.01 ± 5.18 mg/dL. Besides, in [7], the HDL was found to be 35.11 ± 1.66 mg/dL, the LDL was found to be 56.33 ± 2.79 mg/dL, the “TC (total cholesterol)” value is listed as 92.67 ± 4.81 mg/dL and the “TG (triglycerides)” value stood at 112.17 ± 3.10 mg/dL.
With `COc1ccc2c(c1)[nH]c1c3c(c(C)cc12)OC(C)(C)C=C3` [O-methylmurrayamine A], in [8], the “lowering of blood glucose levels” value is listed as “roughly 24.6%”.

The values are drawn from article PMC10905588 (ACS Omega, 2024).
